Source: patent publication US11433075B2, “Methods of treating glioblastoma” (TriAct Therapeutics, Inc., priority 2017, dated 2022)
Like-named read-outs stand apart in the source and are kept apart here. Values belong to the molecule of their own block, whether it stands above or below them.

Legend:
[1] = tested on: same patient population (newly diagnosed GBM); assay: EORTC Phase III trial, Stupp et al. 2005 (RT plus concomitant and adjuvant temozolomide); format: in vivo, human; conditions: 2005 n = 287, conversion
From the text: (§1) For assessing the efficacy of the treatment in terms of overall survival, the overall failure rate were estimated and compared to the failure rate of 0.6 per-person year of follow-up regarding the Phase III trial done by Stupp et al. in the same patient population treated with RT plus concomitant and adjuvant temozolomide.

GBM patients = assay: RTOG 0525 trial, 2013 (STD and DD arms); format: in vivo, human; conditions: conversion
[2] = tested on: same patient population (newly diagnosed GBM); conditions: Stupp et al, 2005 (RT + temozolomide); cited from earlier work
[3] = human, in vivo, iv
From the text: It was a single arm, multi dose, dose escalating trial in newly diagnosed GBM patients. The total number of patients was 43, with about 5 patients per cohort. Patients who tolerated radiation (XRT) and temozolomide (TMZ) were recruited. Inclusion criteria included completion of XRT and TMZ without grade 3 or 4 toxicity and labs within acceptable range within 6 weeks of completing XRT. The end points included safety, maximum tolerated dose (MTD), and signal of activity.
The patients were separated into two study groups with the following treatment schema (also see FIG. 1).
Continuous Reassessment Method (CRM) was used to determine dose escalation. PK was drawn at cycle 1, 2, 3 and off treatment. PD via PBMCs was drawn at cycle 1, 2, 3 and off treatment. No cytochrome P450-inducing anticonvulsants. However, Gliadel was permitted.
Dosing is IV 2×/week continuous.

[4] = tested on: newly diagnosed GBM patients; assay: Phase I GBM study: safety, DLT, MTD, adverse events; format: in vivo, human
Protocol: Study Group 1 Treatment Cycles 4 weeks each (N=23)
Study Group 2 Treatment Cycles 10 weeks each (N=20)
No cytochrome P450-inducing anticonvulsants. However, Gliadel was permitted.
Group 1: TMZ (150-200 mg/m^2 given 5 days/month×6 cycles)—standard dose with BSI-201 starting at 5.1 mg/kg.
Group 2: TMZ (75 mg/m^2 daily 42 days on 30 days off×3 cycles)—metronomic dose with BSI-201 starting at 5.1 mg/kg.
Using modified continual reassessment method, MTD was defined for metronomic and standard dose TMZ. 6 dose levels were tested (lowest 5.1 mg/kg-highest 9.5 mg/kg IV 2×/wk). […] The DLTs across both groups were: rash (1), hypersensitivity reaction (1), fatigue (1) and a thromboembolic event (1). […] Phase 2 dose defined as 8 mg/kg IV 2×/wk with standard TMZ and 8.6 mg/kg IV 2×/wk with metronomic TMZ.

[5] = tested on: adult patients with newly diagnosed glioblastoma multiforme (GBM); assay: Phase II GBM trial (ABTC0703): overall survival; format: in vivo, human
Protocol: 76 patients were recruited for this study.
The following treatment schema (also see FIG. 2).
RT: 60 Gy (total) TMZ: Daily 75 mg/m^2
BSI-201: once per day, twice a week (8.0 mg/kg IV q2 wk)
Rest (4 weeks) with no treatment.
Maintenance Cycles 1-6 (4 weeks)
BSI-201: once per day, twice a week (8.6 mg/kg IV q2 wk)
as §1
The primary endpoint was death due to all causes. The survival time is defined from time of histological diagnosis to death occurrence. The overall failure rate was expressed as hazard of failure per person-year of follow-up. The total patient population for this part of the study was defined as all patients who have met the eligibility criteria, not met ineligibility criteria, and signed patient informed consent.
It yield above 90% power to detect a 30% reduction in hazard rate with observed hazard ratio of 0.7 (0.42 vs. 0.6) at an alpha level of 0.1 to be significant. The overall failure rate was estimated by dividing the number of events (deaths) by the total exposure time in the study cohort along with 95% confidence intervals. Survival probability and median time of survival was calculated using Kaplan-Meier method.

Compound: Cn1nnc2c(C(N)=O)ncn2c1=O [temozolomide]
Hazard Rate (per person year of follow-up) [1]: 0.6 per person year of follow-up
Hazard Rate (per person year of follow-up) (GBM patients; RTOG 0525, 2013 DD arm, n = 422): 0.558 per person year of follow-up
Hazard Rate (per person year of follow-up) (GBM patients; RTOG 0525, 2013 STD arm, n = 411): 0.501 per person year of follow-up
Neutrophil Count Decreased [2]: 7%
Platelet Count Decreased [2]: 12%
White Blood Cell Decreased [2]: 7%

Cmax ([3]; 5.1 mg/kg): 5.7 ± 4.1 ng/mL
Cmax ([3]; 6.1 mg/kg): 7.2 ± 1.8 ng/mL
Cmax ([3]; 6.8 mg/kg): 8.4 ± 3.7 ng/mL
Cmax ([3]; 8 mg/kg): 10.3 ± 2.9 ng/mL
Cmax ([3]; 8.6 mg/kg): 9.7 ± 2.4 ng/mL
Cmax ([3]; 9.5 mg/kg): 13.6 ± 5.3 ng/mL
Compound: NC(=O)c1ccc(I)c(N)c1 [IABM]

Compound: NC(=O)c1ccc(I)c([N+](=O)[O-])c1 [Iniparib, 4-iodo-3-nitrobenzamide]
Phase 2 dose ([4]; IV 2×/wk with metronomic TMZ): 8.6 mg/kg
Phase 2 dose ([4]; IV 2×/wk with standard TMZ): 8 mg/kg
DLT: fatigue (number) ([4]; human, in vivo): 1
DLT: hypersensitivity reaction (number) ([4]; human, in vivo): 1
DLT: rash (number) ([4]; human, in vivo): 1
DLT: thromboembolic event (number) ([4]; human, in vivo): 1
White counts decreased ([4]; human, in vivo): 22 (51) No. (% of pts)
Median Overall Survival, mOS, MGMT methylated ([5]; ABTC0703, n = 29): 27 (n = 29) Months
Median Overall Survival, mOS, MGMT unmethylated ([5]; ABTC0703, n = 37): 15.8 (n = 37) Months
Hazard Rate (per person year of follow-up) ([5]; ABTC0703 n = 76, hazard rate of death): 0.403 per person year of follow-up
Median Overall Survival Months, (95% CI) ([5]; ABTC0703 n = 76, iniparib + RT + TMZ, then iniparib + TMZ maintenance): 21.6 (16.1-23.7) Months
Comparison with RTOG 0525 (2013) ([5]; extrapolated and not pre-planned analysis): improved
Reduction of HR versus Stupp et al 2005 ([5]; single arm phase 2, efficacy endpoint met): ≥ 25%
